Tests used:
[1] = tested on: rats with kaolin/carrageenan (KC) arthritis; test: Hot plate test in kaolin/carrageenan arthritis; format: in vivo, rat
Procedure: Male wistar rats, weighing 180-220 g were selected and fed ad libitum. After four days of acclimatization, the rats were divided into five groups. Group I—control, Group II—Ibuprofen (10 mg/kg b.wt.), Group III—Ibuprofen (50 mg/kg b.wt.), Group IV—Ibuprofen coupled to transthyretin (TTR) or GNNQQNY injected intraperitoneally and Group V—carrageenin control. Groups II-V was anesthetized with halothane and KC arthritis was induced by an intra-articular injection of a mixture of 3% kaolin and 3% carrageenan (0.1 ml in sterile saline) into the synovial cavity of right knee joint. The joint was then manipulated by rapid flexion and extension movements for 1 min. Half an hour after injection of kaolin/carrageenan, the animals were treated as indicated above, with group II and II receiving daily injections of Ibuprofen orally. In the hot plate test method, rats from each group were placed on an analgesiometer, at a temperature of 55° C., and the latency in licking their paw was determined with a stop watch, one hour after treatment on day one (FIG. 32a), and thereafter everyday for four days (FIG. 32b). A 90-s cut-off time was imposed to prevent tissue damage.

[2] = tested on: ovariectomized (OVX) rats; settings: rat, in vivo
Procedure: 44 female Sprague-Dawley rats (Charles River Laboratory, Wilmington, Mass.), approximately 90 days of age with an average body weight of 230 g were grouped into four groups at the beginning of the study. All rats were anesthetized with an intraperitoneal injection of ketamine hydrochloride and xylazine at doses of 50 and 10 mg/kg body weight (BW), respectively. Bilateral ovariectomies were performed in three groups from a dorsal approach. All rats were housed individually at 25° C. with a 12 h light/12 h dark cycle. The food consumption of ovariectomized (OVX) rats was restricted to that of the control rats to minimize increase in the body weight associated with ovariectomy. All rats were treated for 8 weeks with vehicle or Human/salmon CT (Sigma) either intermittently by subcutaneous injection or continuously by Alzet osmotic minipumps (Model 2ML4; Alza Corp., Palo Alto, Calif.) containing 200 μl of either CT (4 μg/kg) or SCA (Supramolecular calcitonin assembly) (2 mg/ml) in 2% mannitol, designed to deliver the solutions at a constant rate of 2.5 μl/h for 28 days. The intermittent treatments started a day after surgery. The minipumps for continuous CT or Calcitonin SCA or vehicle treatments were implanted at the time of surgery (day 0) and replaced after 3 weeks in case of continuous CT and vehicle treatment. […] For subcutaneous injections of CT, the hormone was dissolved in a vehicle of 2% mannitol.
Half of the OVX rats from this group were injected subcutaneously on alternate days with 2% mannitol as a vehicle. The remaining OVX rats in this group were implanted subcutaneously with Alzet osmotic minipumps for continuous infusion of vehicle.
Each OVX rat of one group was injected subcutaneously on alternate days with salmon CT at a dose of 16 U/kg BW (4 μg/kg b wt), and the other was implanted subcutaneously with an Alzet osmotic minipump for continuous infusion of human CT. The daily dose delivered to each rat by the minipump was 8 U/kg BW (2 μg/kg BW), which was equivalent to the dose given to the preceding group through subcutaneous injections on alternate days (16 U/kg).
Serum samples were stored at −80° C. until analyzed for their CT concentration by immunoassay methods with a commercially available kit (Bio-Merica). […] Calcitonin in serum was measured by an immunoassay kit.
Data are expressed as the mean±standard deviation (SD) for each group. Statistical differences were evaluated by analysis of variance. P values<0.05 were considered to be significant.

MCF 7 cells = test: MTT cell proliferation assay; format: cell-based; settings: 3 days after treatment
Procedure: Cells were plated in 24-well plates with 10,000 cells/well in regular DMEM media containing 10% FBS. All treatments were done in triplicates. Growth was measured 3 days after treatment. Growth was assayed by the MTT assay. A total of 50 μl of 5 mg/ml MTT solution in PBS was added to each well. After incubation for 4 h at 37° C., formazan crystals were lysed with 500 μl of solubilization solution (20% SDS, 50% DMSO). Absorbance was measured with a plate reader at 570 nm using a 670-nm differential filter.

[3] = tested on: STZ-induced diabetic rats; test: Blood glucose control in streptozotocin-induced diabetic rats; format: in vivo, rat
Procedure: Nine weeks old Male Wistar rats (Rattus norvegicus albinus, Rodentia mammalia) weighing 210±10 g were used. Rats were housed in commercially available polypropylene cages and maintained under controlled temperature conditions on a 12 h light-dark cycle and allowed to access food and water ad libitum.
Male Wistar Rats weighing 250-300 g were divided into four groups and blood glucose estimation was done using Roche Accu Check glucose strips. Rats were kept on fasting for 48 hours. 50 mg/kg b.wt of Streptozotocin prepared freshly in citrate buffer (pH 4.5) was administered intraperitoneally to 10-20 rats. Food was provided immediately and blood glucose levels were checked after three days. The animals were grouped according to their blood glucose level (group I: 250-350 mg/dl, group II: 350-450 mg/dl and group III: >450 mg/dL).
A group of 5 normal rats injected 100 μl of PBS, served as the non-diabetic control. Body weight and blood glucose levels, both pre-prandial after 8-10 hr fasting and post-prandial were checked initially daily and then with decreasing frequency.

STZ treated rats = test: Intraperitoneal glucose tolerance test (IPGTT); format: in vivo, rat
Procedure: The STZ treated (n=12) and normal rats (n=4) were kept on fasting for 12 hrs. Blood glucose levels were monitored as described above. For glucose tolerance test was done. […] Blood glucose levels were monitored at 0, 30, 90, 150, 270 and 330 min after treatment. Serum was isolated for various time points and a graph was plotted between blood glucose level and time. FIG. 12 provides blood glucose profile of Intraperitoneal Glucose Tolerance Test (IPGTT).

[4] = Serum insulin quantification by ELISA; settings: in 30 min
Procedure: Serum was isolated from the blood samples collected and stored at −20° C. till further analysis.

Male wistar rats = test: Hyperglycemic clamp after treatment with SIA II; format: in vivo, rat; settings: one week, one month and three month
Procedure: Male wistar rats were anesthetized (Isoflurane 2%) and a carotid and jugular catheter installed to allow blood withdrawal and glucose injections (20% glucose solution) to clamp blood glucose level at 600 mg/dL. Following a 12 hours fasting period, glucose was infused in all groups to make them hyperglycemic. This was followed by blood withdrawal at indicated time intervals, for blood glucose measurements and the rate of glucose infusion to retain them hyperglycemic were calculated. This procedure was repeated after one and three months of SIA II administration (FIG. 16 a-c).

[5] = tested on: insulin signaling cascade (PI3K, Akt, GSK3β, ERK1/2) in rat adipocytes; test: Western blot of insulin signaling cascade in cultured adipocytes; format: cell-based; settings: compared to control
Procedure: Rat adipocytes were isolated and cultured according to the method described by Björntorp et al. (Björntorp, P., Karlsson, M., Pettersson, P. & Sypniewska, G. Differentiation and function of rat adipocyte precursor cells in primary culture. J. Lipid Res. 21, 714-723 (1987)). Male Wistar rats fed freely were sacrificed and epididymal fat tissue was dissected and collected in reagent A (HBSS, 100 U/ml penicillin, 100 μg/ml streptomycin and […] gentamycin). The tissue was washed properly in HBSS. Following this the tissue was cut and minced finely and transferred to a falcon, centrifuged at 200 g for 2 min. The layer of transparent oil was removed and the adipocyte cell layer (thick and dense) was added to three times the volume of reagent B (reagent A containing 0.1% BSA and 1 mg/ml Collagenase) in a flask. The flask was incubated at 37° C. for 60 min with continuous slow shaking. The reaction was stopped by addition of DMEM complete media (with HEPES 15 mM, glc, 0.1% BSA, 50 nM adenosine and 1% fetal bovine serum) three times the volume and incubated at room temperature for 5 min. […]
After incubation, the cells were collected in a falcon tube and centrifuged at 200 g for 10 min. […] Adipocytes treated with (a) PBS, insulin, SIA-II, insulin released from SIA-II, (b) serum as indicated, and analysed for insulin signaling.

[6] = tested on: STZ-induced diabetic rats; test: Clinical parameters for the evaluation of toxicity of SIA II; format: in vivo, rat; settings: end of three month study
Text: Serum isolated from blood samples collected at the end of the three month study and subjected to various tests indicated in the Table. Results are mean±s.d. of three different experiments having n=4 animals in each group.

[7] = tested on: fat-fed/streptozotocin-diabetic rats; test: Type II diabetes model, fat-fed/streptozotocin-diabetic rats; format: in vivo, rat
Procedure: Male Wistar rats, 7 weeks of age, and weighing approximately 200 g, were used for all studies. […] After 2 weeks on either diet, animals (with the exception of non-injected controls) after an overnight fast were injected with STZ (50 mg/kg) into the tail vein via a temporary indwelling 24-gauge catheter. Animals had free access to food and water after the STZ injection, and both STZ-injected and non-injected animals were continued on their original diets (chow or fat) for the duration of the study.

[8] = tested on: STZ-induced diabetic rats; test: Clinical parameters for the evaluation of toxicity of SIA II; format: in vivo, rat
[9] = insulin: single dose of 4 IU/kg daily, SIA: single injection 200 μg

## CC(C)Cc1ccc(C(C)C(=O)O)cc1 (stereo not drawn) [Ibuprofen]
[1]; 10 mg/kg b.wt orally
  latency in licking paw (heat endured): up to 12 sec
[1]; 50 mg/kg b.wt orally
  latency in licking paw (heat endured): ≤ 17 s

## CC(C)C[C@H](NC(=O)[C@H](CCCCN)NC(=O)CNC(=O)[C@H](CC(C)C)NC(=O)[C@@H](NC(=O)[C@@H]1CSSC[C@H](N)C(=O)N[C@@H](CO)C(=O)N[C@@H](CC(N)=O)C(=O)N[C@@H](CC(C)C)C(=O)N[C@@H](CO)C(=O)N[C@@H]([C@@H](C)O)C(=O)N1)C(C)C)C(=O)N[C@@H](CO)C(=O)N[C@@H](CCC(N)=O)C(=O)N[C@@H](CCC(=O)O)C(=O)N[C@@H](CC(C)C)C(=O)N[C@@H](Cc1c[nH]cn1)C(=O)N[C@@H](CCCCN)C(=O)N[C@@H](CC(C)C)C(=O)N[C@@H](CCC(N)=O)C(=O)N[C@H](C(=O)N[C@@H](Cc1ccc(O)cc1)C(=O)N1CCC[C@H]1C(=O)N[C@@H](CCCNC(=N)N)C(=O)N[C@H](C(=O)N[C@@H](CC(N)=O)C(=O)N[C@H](C(=O)NCC(=O)N[C@@H](CO)C(=O)NCC(=O)N[C@H](C(=O)N1CCC[C@H]1C(N)=O)[C@@H](C)O)[C@@H](C)O)[C@@H](C)O)[C@@H](C)O [SCA]
[2]
  Calcitonin (serum): 19.1 ± 4.2
  antibody against salmon calcitonin: negligible
  serum levels of calcitonin: 0.019 ng/mL
  time depot keeps on releasing calcitonin: 6-8 weeks
  time serum calcitonin maintained at a higher level: up to 60 days

## IGF 1: Insulin like growth factor I, positive control for proliferation of MCF 7 cells
MCF 7 cells
  proliferation of MCF 7 cells: mitogenic

## Insulin: free, non-supramolecularly organized insulin; bovine insulin 4 U/kg intraperitoneally
[3]; insulin intraperitoneally everyday
  blood glucose levels: 300 ± 100 mg/dL
[3]; [9]
  fasting blood glucose: 300 to 400 mg/dL
  non-fasting blood glucose: 350 to 450 mg/dL
[3]; standard insulin injection
  duration of action: 6 to 10 h
STZ treated rats; after glucose infusion 3 g/kg IP
  time for elevated blood glucose to return to pre challenged levels: ≤ 1.5 h
STZ treated rats; severe hyperglycemia
  onset of effect in IPGTT: ≤ 30 min
[4]
  serum bovine insulin in IPGTT: ~0.9 ng/mL
Male wistar rats
  rate of glucose infused for maintaining hyperglycemic state: decreases over time
[5]
  activation of ERK 1/2: significant activation
  phosphorylation of GSK3β: increased several fold
[6]; Single daily Insulin Injection
  Alkaline Phosphatase: 777.8 ± 89.4 U/L
  Bilirubin (Direct): 0.36 ± 0.08 mg/dL
  Bilirubin (Total): 0.40 ± 0.08 mg/dL
  Chloride: 165 ± 23 mEq/L
  Phosphorous: 6.5 ± 1.3 mEq/L
  SGOT: 355 ± 83 U/L
  SGPT: 86 ± 36 U/L
  Serum A/G ratio: 0.595
  Serum Albumin: 2.5 ± 0.21 g/dL
  Serum Creatinine: 1.01 ± 0.30 mg/dL
  Serum Globulin: 4.2 ± 0.18 g/dL
  Serum total proteins: 6.70 ± 0.21 g/dL
  Sodium: 200 ± 26 mEq/L
  Urea: 58.3 ± 9.2 mg/dL
  Uric Acid: 3.0 ± 0.81
[6]; Twice daily Insulin Injection
  Adipose Tissue: Decreased
  Alkaline Phosphatase: 489 ± 65 U/L
  Bilirubin (Direct): 0.25 ± 0.06 mg/dL
  Bilirubin (Total): 0.35 ± 0.1 mg/dL
  Chloride: 119 ± 26 mEq/L
  Phosphorous: 6.2 ± 0.95 mEq/L
  SGOT: 300 ± 56 U/L
  SGPT: 85 ± 15 U/L
  Serum A/G ratio: 0.955
  Serum Albumin: 3.2 ± 0.19 g/dL
  Serum Creatinine: 0.88 ± 0.21 mg/dL
  Serum Globulin: 3.35 ± 0.15 g/dL
  Serum total proteins: 5.55 ± 0.25 g/dL
  Sodium: 198 ± 45.5 mEq/L
  Urea: 60.1 ± 12.36 mg/dL
  Uric Acid: 3.1 ± 0.56
MCF 7 cells
  proliferation of MCF 7 cells: does not cause proliferation of cells
[7]; 1 week
  B W: 261
  BGL: 420 mg/dL
  FFA: 1.9 ± 0.08 mmol/L
  Rat Insulin: 37.09 ± 4.7 μU/ml
  TG: 0.77 ± 0.05 mmol/L
[7]; 2 week
  B W: 263
  BGL: 401 mg/dL
  FFA: 2.1 ± 0.08 mmol/L
  Rat Insulin: 37.09 ± 4.7 μU/ml
  TG: 0.75 ± 0.05 mmol/L
[7]; 3 week
  B W: 269
  BGL: 390 mg/dL
  FFA: 1.8 ± 0.08 mmol/L
  Rat Insulin: 37.09 ± 4.7 μU/ml
  TG: 0.73 ± 0.05 mmol/L
[7]; 4 week
  BGL: 396 mg/dL
  FFA: 2.1 ± 0.08 mmol/L
  Rat Insulin: 37.09 ± 4.7 μU/ml
  TG: 0.76 ± 0.05 mmol/L
[7]; serum
  increase of TAGs and FFA levels in serum: up to 1.5 fold
[8]; Single daily Insulin Injection, end of three month study
  Adipose Tissue: Decreased
[8]; diabetic rats
  cataract formation: Development of cataract

From patent US20110034385A1, “Compositions Useful for the Treatment of Diabetes and Other Chronic Disorder” (NATIONAL INSTITUTE OF IMMUNOLOGY, priority 2008, published 2011)
